Reference: US4910213A, “Antimycotic agents” (Bayer Aktiengesellschaft, priority 1984, dated 1990)
Values after ≈ are worked out from the molar mass of the structure shown.

Experiments:
Torulopsis glabrata = experiment: In vitro antimycotic activity, serial dilution test (MIC); type: cell-based; details: Nakaseomyces glabratus, 28° to 37° C., 24 to 96 hours
Description: (§1) The in vitro tests were carried out in a serial dilution test using inocula of organisms with an average of 5×10^3 to 10^4 organisms/ml of substrate. The following nutrient medium were used (b) for yeasts: meat extract/glucose broth. The incubation temperature was 28° to 37° C., and the incubation time was 24 to 96 hours for yeasts and 96 hours for dermatophytes and mold fungi.

Aspergillus fumigatus = experiment: as above; type: cell-based; details: 28° to 37° C., 96 hours
Description: (§2) The in vitro tests were carried out in a serial dilution test using inocula of organisms with an average of 5×10^3 to 10^4 organisms/ml of substrate. The following nutrient medium were used
(§3) (a) for dermatophytes and mold fungi: Sabourand's milieu d'epreuve
(§4) The incubation temperature was 28° to 37° C., and the incubation time was 24 to 96 hours for yeasts and 96 hours for dermatophytes and mold fungi.

Trichophyton mentagr. = experiment: as above; type: cell-based, Trichophyton mentagrophytes; details: 28° to 37° C., 96 hours
Description: as §2, §3, §4

Candida albicans = experiment: as above; type: cell-based; details: 28° to 37° C., 24 to 96 hours
Description: as §1

candida cells = experiment: In vivo antimycotic activity (oral) on candidosis of the mouse; set-up: species or system mouse (SPF-CF1) infected with candida; details: 10-100 mg/kg; for Action (class of survival on day 6 after infection): 1 hour before and 7 hours after infection; for surviving on day 6 after infection: good or very good actions, untreated controls about 5%
Description: Type SPF-CF1 mice were infected intravenously with 1-2×10^6 logarithmically growing candida cells which are suspended in physiological saline solution. The animals are each treated orally with 10-100 mg/kg of body weight of the products 1 hour before and 7 hours after the infection. Untreated animals died on days 3 to 6 after the infection. The survival rate on day 6 after the infection was about 5% for untreated control animals.

[1] = tested on: dermatophytes, mold fungi and yeasts; experiment: In vitro antimycotic activity, overall comparison with known compounds; type: cell-based; details: in vitro serial dilution test
Description: as §1, with “used (a) for dermatophytes and mold fungi: Sabourand's milieu d'epreuve” for “used”

Microsporum canis = experiment: In vitro antimycotic activity, serial dilution test (MIC); type: cell-based; details: 28° to 37° C., 96 hours
Description: as §2, §3, §4

Compound | MIC (Torulopsis glabrata) | MIC (Aspergillus fumigatus) | MIC (Trichophyton mentagr.) | MIC (Candida albicans) | MIC (Microsporum canis) | Action (class of survival on day 6 after infection) (candida cells) | surviving on day 6 after infection (candida cells) | antimycotic action compared with compounds (A), (B) and (C) [1]
OC(Cn1cncn1)(Cn1cncn1)c1cccc(Cl)c1 [(A), reference compound] | > 64 µg/mL | > 64 µg/mL | 32 µg/mL (≈ 105 µM) |  |  |  |  | 
OC(Cn1cncn1)(Cn1cncn1)c1ccc(Cl)cc1 [(B), reference compound] | 64 µg/mL (≈ 210 µM) | > 64 µg/mL | 16 µg/mL (≈ 52.5 µM) | 2 µg/mL (≈ 6.56 µM) |  |  |  | 
OC(Cn1cncn1)(c1ccc(F)cc1)C1(n2cncn2)CC1 (stereo not shown) [Example I-2] |  |  |  |  |  | +++++ (very good action = 90% surviving on day 6 after infection) | > 60% | 
Cc1ccc(C(O)(Cn2cncn2)C2(n3cncn3)CC2)cc1 (stereo not shown) [Example I-5] |  |  |  |  |  | ++++ (good action = 80% surviving on day 6 after infection) | > 60% | 
OC(Cn1cncn1)(c1ccc(Cl)cc1)C1(n2ccnc2)CC1 (stereo not shown) [Example I-10] |  |  |  |  |  | +++ (action = 60% surviving on day 6 after infection) | > 60% | 

Now from value to compound, other results behind:

MIC (Torulopsis glabrata) | MIC (Aspergillus fumigatus) | MIC (Trichophyton mentagr.) | MIC (Candida albicans) | MIC (Microsporum canis) | Compound | Action (class of survival on day 6 after infection) (candida cells) | surviving on day 6 after infection (candida cells) | antimycotic action compared with compounds (A), (B) and (C) [1]
> 64 µg/mL | > 64 µg/mL | 64 µg/mL (≈ 237 µM) | 64 µg/mL (≈ 237 µM) |  | OC(Cn1cncn1)(Cn1cncn1)c1ccccc1 [(C), reference compound] |  |  | 
> 64 µg/mL | 32 µg/mL (≈ 96.7 µM) | 2 µg/mL (≈ 6.05 µM) | 8 µg/mL (≈ 24.2 µM) | 32 µg/mL (≈ 96.7 µM) | OC(Cn1cncn1)(c1ccc(Cl)cc1)C1(n2cncn2)CC1 (stereo not shown) [Example I-1, 1-(4-chlorophenyl)-1-[1-(1,2,4-triazol-1-yl)cyclopropyl]-2-(1,2,4-triazol-1-yl)-1-ethanol] | +++++ (very good action = 90% surviving on day 6 after infection) | > 60% | better antimycotic action than compounds (A), (B) and (C)
8 µg/mL (≈ 21.5 µM) | 8 µg/mL (≈ 21.5 µM) | < 1 µg/mL | 2 µg/mL (≈ 5.37 µM) | 4 µg/mL (≈ 10.7 µM) | OC(Cn1cncn1)(c1ccc(-c2ccccc2)cc1)C1(n2cncn2)CC1 (stereo not shown) [Example I-3] | +++ (action = 60% surviving on day 6 after infection) | > 60% | better antimycotic action than compounds (A), (B) and (C)
> 64 µg/mL | 32 µg/mL (≈ 108 µM) | 4 µg/mL (≈ 13.5 µM) | 8 µg/mL (≈ 27 µM) | 32 µg/mL (≈ 108 µM) | OC(Cn1cncn1)(c1ccccc1)C1(n2cncn2)CC1 (stereo not shown) [Example I-6] | +++++ (very good action = 90% surviving on day 6 after infection) | > 60% | better antimycotic action than compounds (A), (B) and (C)
32 µg/mL (≈ 85.3 µM) | 64 µg/mL (≈ 171 µM) | < 1 µg/mL | 4 µg/mL (≈ 10.7 µM) | 32 µg/mL (≈ 85.3 µM) | OC(Cn1cncn1)(c1ccc(Br)cc1)C1(n2cncn2)CC1 (stereo not shown) [Example I-7] | ++++ (good action = 80% surviving on day 6 after infection) | > 60% | better antimycotic action than compounds (A), (B) and (C)
